Measurements as given in US5063224A, “R-cefuroxime axetil” (priority 1990, dated 1991).
≈ marks a conversion by molar mass, not a printed value.

How the values were obtained:
[1] = oral administration; cited from earlier work
[2] = Microbiological assay of biological potency (Example 2 product); details: product with 85% by weight R- and 15% S-cefuroxime axetil
physchem = format: physicochemical; details: organic solvent or mixture
Method: The substantially pure R-cefuroxime axetil of this invention is prepared by selectively solubilizing the R-isomer in a solvent in which the S-isomer is only minimally soluble relative to the R-isomer. Solvents commonly employed are those in which the R-isomer is about six times more soluble in a given volume than the S-isomer. […] Generally, a mixture of R and S-cefuroxime axetil, prepared as described in GB 2,145,409A, and containing the R and S-isomers, is added to a solvent to form a slurry. The best results are obtained employing a solvent that provides sufficient solubility to maintain the desired volume at a minimum. Preferred solvents include alcohols such as methanol and ethanol. […] In isopropanol at 25° C., the R-isomer is 1.84 mg/ml, and the S-isomer is 0.44 mg/ml. In n-butanol at 25° C., the R-isomer is 1.0 mg/ml and the S-isomer is 0.3 mg/ml. In ethyl acetate at 25° C., the R-isomer is 13.42 mg/ml, and the S-isomer is 10.0 mg/ml.

[3] = test system: esterase enzymes in blood serum; assay: Hydrolysis by esterase enzymes in dog blood serum (Example 5); format: in vitro ADME
Method: The following study was conducted to establish that S-cefuroxime axetil is hydrolyzed to cefuroxime acid much more rapidly by esterase enzymes in blood serum than the R-cefuroxime axetil of this invention.
Blood serum was obtained from an 11.5 kg male dog two days prior to sacrifice. The whole blood was centrifuged for fifteen minutes at 3500 rpm and 4° C. The serum thus collected was diluted with ten parts Sorenson's phosphate buffer pH 7.4.
A solution was prepared by dissolving 0.29 mg of R-cefuroxime axetil in 50 ml of Sorenson's phosphate buffer pH 7.4. Another solution was prepared by dissolving 0.26 mg of S-cefuroxime acetil in 50 ml of Sorenson's phosphate buffer pH 7.4.
Triplicate test tubes containing 2.75 ml of the R-cefuroxime axetil solution, and triplicate tubes containing 2.75 ml of the S-cefuroxime axetil solution, were each heated to 37° C. and diluted with 0.25 ml of the serum preparation from above. Aliquot portions (200 μl each) from each tube were drawn at thirty minute intervals, diluted with 100 μl of 10% aqueous trichloracetic acid, and 100 μl of acetonitrile. The samples were centrifuged at 3000 rpm for five minutes to precipitate the proteins, and then transferred to autosampler tubes for determination of cefuroxime free acid content. Analysis was conducted using a Beckman 344 gradient high performance liquid chromatography column packed with zorbox C18 reverse phase, with an eluant comprised of 40 parts methanol and 60 parts water. Standard integration of HPLC curves were carried out to convert the area to a mg/ml equivalent.

[4] = Hydrolysis in dog gut cell (intestine) preparation (Example 6); format: in vitro ADME
Method: About 18 inches of intestine was removed from a 13 month old male dog weighing 11.5 kg. The intestine section was washed several times with Sorenson's solution, and then sliced open lengthwise. The intestine cells were collected by scraping the inner surface of the intestine with a glass microscope slide, and provided 6.10 g of cell tissue. The cell tissue was placed in 30.5 ml of Sorenson's pH 7.5 phosphate buffer. The mixture was homogenized for 30 seconds with a Tek-Mar tissuemizer. The resulting suspension was centrifuged at 4° C. at 3500 rpm for 15 minutes.
Following the general procedure of Example 2, 0.277 mg of R-cefuroxime axetil was dissolved in 50 ml of Sorenson's pH 7.4 buffer, and 0.263 mg of S-cefuroxime axetil was dissolved in 50 ml of Sorenson's pH 7.4 buffer.
Triplicate tubes of 2.75 ml of the R-cefuroxime axetil solution, and triplicate tubes of the S-cefuroxime axetil solution, were allowed to equilibrate to 37° C., and then 0.25 ml of the intestine mixture from above was added to each tube. Aliquot samples were withdrawn every 30 minutes for two hours, and each 200 μl of 10% aqueous trichloroacetic acid and 100 μl of acetonitrile. […] The assays were analyzed for unchanged R- or S-cefuroxime axetil and afforded the following results.

| solubility (physchem; ethanol) [µg/mL] | solubility (physchem; ethyl acetate) [µg/mL] | solubility (physchem; isopropanol) [µg/mL] | solubility (physchem; methanol) [µg/mL] | solubility (physchem; n-butanol) [µg/mL] | half-life (in words) [3] | hydrolysis rate relative to R-cefuroxime axetil in blood serum [3] | hydrolysis in blood serum (in words) ([3]; vs R-cefuroxime axetil) | hydrolysis rate relative to R-cefuroxime axetil in intestinal preparations [4] | hydrolysis in the dog gut (in words) ([4]; vs R-cefuroxime axetil) | Compound | bioavailability of the cefuroxime antibiotic [1] | biological potency [2] [%] |
| --- | --- | --- | --- | --- | --- | --- | --- | --- | --- | --- | --- | --- |
|  |  |  |  |  |  |  |  |  |  | CO/N=C(\C(=O)N[C@@H]1C(=O)N2C(C(=O)OC(C)OC(C)=O)=C(COC(N)=O)CS[C@H]12)c1ccco1 (mixture of isomers) [R,S-mixture of cefuroxime axetil, 1-acetoxyethyl ester of cefuroxime] | about fifty |  |
| 12000 (≈ 23.5 mM) | 13400 (≈ 26.3 mM) | 1840 (≈ 3.6 mM) | 391000 (≈ 767 mM) | 1000 (≈ 1.96 mM) | longer half-life |  |  |  |  | CO/N=C(\C(=O)N[C@@H]1C(=O)N2C(C(=O)O[C@H](C)OC(C)=O)=C(COC(N)=O)CS[C@H]12)c1ccco1 [R-cefuroxime axetil] |  | 99 |
| ~2980 (≈ 5.84 mM) | 10000 (≈ 19.6 mM) | 440 (≈ 0.862 mM) | 90000 (≈ 176 mM) | 300 (≈ 0.588 mM) |  | about 25 fold | hydrolyzed much more rapidly | about 3 fold | hydrolyzed much more rapidly | CO/N=C(\C(=O)N[C@@H]1C(=O)N2C(C(=O)O[C@@H](C)OC(C)=O)=C(COC(N)=O)CS[C@H]12)c1ccco1 [S-cefuroxime axetil, reference compound] |  |  |
